Structures are written as SMILES. *1 amine or outer side, *2 acyl side, *3 side chain or, on linkers, in order; H or OH if unused. Where a SMILES comes first, the peptide text is derived from it. Bridges are numbered along the chain shown (N, C = ends). [ ]: non-standard residue; d: D form. X1 = O=C(O)CCCCCCCCCCCCCCCCCCC(=O)N[C@@H](CCCCNC(=O)COCCOCCNC(=O)COCCOCCNC(=O)CCC(=O)N(CCNC(=O)C[*:1])CCNC(=O)C[*:2])C(=O)O; αMeL = CC(C)C[C@](C)(N)C(=O)O; Aib = CC(C)(N)C(=O)O

Broadly, the EC50 is the concentration needed to bring the measured effect to its halfway point.

Holding throughout (format): cell-based
Assay [1] addresses T1, GLP-1R (Homo sapiens, UniProt P43220).
T1 construct: expressed in transfected cells
Nature of the assay: CreLuc method (CRE-luciferase reporter), HEK293/pGM-CREB-L-Luc/GLP-1R pool. Conditions: 6 h incubation, read-out: EC50 (pM) for each receptor GLP-1R. On the procedure:
(§1) 1. Insulinotropic analogues can bind to the target receptor on the cell membrane, activate the cAMP response element (CRE), and initiate the expression of downstream luciferase. The expression level is positively correlated with the biological activity of the analogue being tested. After activation, luciferase substrate is added for chemiluminescence detection, and the luminescence intensity is determined to characterize the biological activity of the test compounds. Therefore, the target peptide derivatives (or polypeptide derivatives, i.e., TG1-TG94) prepared in Example 1 and Example 2 can be tested by the CreLuc method. The specific steps are as follows: The stably transfected cell lines HEK293/pGM-CREB-L-Luc/GLP-1R pool, HEK293/pGM-CREB-L-Luc/GIPR pool, and 293HEK/pGM-CREB-L-Luc/GCGR pool were constructed. […] The corresponding test cells were digested (1 min), dispersed by pipetting, and centrifuged (1000 rpm, 5 min). The culture medium was discarded, and the cells were resuspended in freestyle medium, centrifuged again, collected, and counted. The cells were then diluted to a cell density of 5 x 10^5 cells/mL and then added to the detection wells of a 384-well plate (40 µL/20,000 cells/well). Echo was used to add the corresponding analyte dilution series. The cell plate was incubated at 37°C and 5% CO2 for 6 h, then ONE-GLO (20 µL/well) was added for detection. It was kept in the dark for 3 min, then a chemiluminescent microplate reader was used for determination. The plate was read within 30 min, and the determination results were recorded. […] Table 3: EC50 values for target peptide derivatives
A general note: Reporter assays use an easily measured gene product as a stand-in for the process of interest.

Assay [2] deals with T2, GIPR (Homo sapiens, UniProt P48546).
T2 construct: expressed in transfected cells
T2 sequence (P48546 22-466): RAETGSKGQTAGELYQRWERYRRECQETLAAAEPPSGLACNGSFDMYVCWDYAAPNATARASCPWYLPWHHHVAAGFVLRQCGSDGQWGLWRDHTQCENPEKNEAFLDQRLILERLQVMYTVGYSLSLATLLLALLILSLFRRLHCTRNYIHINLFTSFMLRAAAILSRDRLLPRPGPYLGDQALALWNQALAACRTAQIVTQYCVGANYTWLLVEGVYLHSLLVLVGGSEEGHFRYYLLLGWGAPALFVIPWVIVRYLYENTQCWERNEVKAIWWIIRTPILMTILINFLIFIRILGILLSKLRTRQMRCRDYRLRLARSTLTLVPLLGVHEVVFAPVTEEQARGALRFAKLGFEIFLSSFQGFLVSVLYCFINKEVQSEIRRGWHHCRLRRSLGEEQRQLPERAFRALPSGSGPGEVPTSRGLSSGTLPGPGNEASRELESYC
Put plainly: CreLuc method (CRE-luciferase reporter), HEK293/pGM-CREB-L-Luc/GIPR pool. The settings on record: 6 h incubation, read-out: EC50 (pM) for each receptor GIPR. As for the experimental part: as §1

Assay [3] addresses T3, GCGR (Homo sapiens, UniProt P47871).
T3 construct: expressed in transfected cells
Put plainly: CreLuc method (CRE-luciferase reporter), 293HEK/pGM-CREB-L-Luc/GCGR pool. Conditions: 6 h incubation, read-out: EC50 (pM) for each receptor GCGR. On the procedure: as §1

T3 sequence (P47871 26-477, species assumed): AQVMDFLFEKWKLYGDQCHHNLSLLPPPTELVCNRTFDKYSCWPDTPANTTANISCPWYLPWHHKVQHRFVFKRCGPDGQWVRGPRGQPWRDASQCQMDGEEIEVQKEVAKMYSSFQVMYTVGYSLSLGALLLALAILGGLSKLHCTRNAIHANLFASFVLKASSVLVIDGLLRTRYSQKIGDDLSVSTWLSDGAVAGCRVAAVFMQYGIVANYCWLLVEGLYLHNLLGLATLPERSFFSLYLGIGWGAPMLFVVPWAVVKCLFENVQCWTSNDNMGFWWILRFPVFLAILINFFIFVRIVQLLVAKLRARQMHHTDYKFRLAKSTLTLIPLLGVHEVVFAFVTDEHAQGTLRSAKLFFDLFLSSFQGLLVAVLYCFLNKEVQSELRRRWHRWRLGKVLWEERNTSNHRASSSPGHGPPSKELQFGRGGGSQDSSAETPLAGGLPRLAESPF
T1 sequence (P43220 24-463, species assumed): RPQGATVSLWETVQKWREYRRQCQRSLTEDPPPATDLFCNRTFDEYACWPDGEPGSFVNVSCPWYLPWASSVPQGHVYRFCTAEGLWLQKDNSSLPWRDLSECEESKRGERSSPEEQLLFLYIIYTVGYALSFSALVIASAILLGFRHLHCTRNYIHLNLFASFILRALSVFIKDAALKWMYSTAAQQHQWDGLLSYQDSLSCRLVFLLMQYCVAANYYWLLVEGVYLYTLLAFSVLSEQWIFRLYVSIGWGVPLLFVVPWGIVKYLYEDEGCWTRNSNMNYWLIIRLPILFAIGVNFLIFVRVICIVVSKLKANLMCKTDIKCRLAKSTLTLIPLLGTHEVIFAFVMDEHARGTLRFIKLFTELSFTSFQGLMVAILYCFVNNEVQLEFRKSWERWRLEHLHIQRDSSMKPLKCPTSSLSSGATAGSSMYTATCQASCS

Regarding `CC[C@H](C)[C@@H]1NC(=O)[C@H](Cc2ccccc2)NC(=O)[C@@H](NC(=O)C(C)(C)NC(=O)[C@H](CCC(N)=O)NC(=O)[C@H](C)NC(=O)[C@H](CCCCNC(C)=O)NC(=O)[C@H](CCCCN)NC(=O)[C@H](CC(=O)O)NC(=O)[C@H](CC(C)C)NC(=O)[C@](C)(CC(C)C)NC(=O)[C@@H](NC(=O)[C@H](CO)NC(=O)[C@H](Cc2ccncc2)NC(=O)[C@H](CC(=O)O)NC(=O)[C@H](CO)NC(=O)[C@@H](NC(=O)[C@H](Cc2ccccc2)NC(=O)[C@@H](NC(=O)CNC(=O)[C@H](CCC(N)=O)NC(=O)C(C)(C)NC(=O)[C@@H](N)Cc2ccc(O)cc2)[C@@H](C)O)[C@@H](C)O)[C@@H](C)CC)CSCC(=O)NCCN(C(=O)CCC(=O)NCCOCCOCC(=O)NCCOCCOCC(=O)NCCCC[C@H](NC(=O)CCCCCCCCCCCCCCCCCCC(=O)O)C(=O)O)CCNC(=O)CSC[C@@H](C(=O)NCC(=O)NCC(=O)N2CCC[C@H]2C(=O)N[C@@H](CO)C(=O)N[C@@H](CO)C(=O)NCC(=O)N[C@@H](C)C(=O)N2CCC[C@H]2C(=O)N2CCC[C@H]2C(=O)N2CCC[C@H]2C(=O)N[C@@H](CO)C(N)=O)NC(=O)[C@H](CC(C)C)NC(=O)[C@H](CC(C)C)NC(=O)[C@H](Cc2ccc(O)cc2)NC(=O)[C@H](CCC(=O)O)NC1=O` [TG38], the EC50 is 70.2 pM in assay [1], 14.5 pM in assay [2] and 232 pM in assay [3].

As for `CC[C@H](C)[C@@H]1NC(=O)[C@H](Cc2ccccc2)NC(=O)[C@@H](NC(=O)[C@@H](C)NC(=O)[C@H](CCC(N)=O)NC(=O)[C@H](C)NC(=O)[C@H](CCCCNC(C)=O)NC(=O)[C@H](CCCCN)NC(=O)[C@H](CC(=O)O)NC(=O)[C@H](CC(C)C)NC(=O)[C@](C)(CC(C)C)NC(=O)[C@@H](NC(=O)[C@H](CO)NC(=O)[C@H](Cc2ccc(O)cc2)NC(=O)[C@H](CC(=O)O)NC(=O)[C@H](CO)NC(=O)[C@@H](NC(=O)[C@H](Cc2ccccc2)NC(=O)[C@@H](NC(=O)CNC(=O)[C@H](CCC(N)=O)NC(=O)C(C)(C)NC(=O)[C@@H](N)Cc2ccc(O)cc2)[C@@H](C)O)[C@@H](C)O)[C@@H](C)CC)CSCC(=O)NCCN(C(=O)CCC(=O)NCCOCCOCC(=O)NCCOCCOCC(=O)NCCCC[C@H](NC(=O)CCCCCCCCCCCCCCCCCCC(=O)O)C(=O)O)CCNC(=O)CSC[C@@H](C(=O)NCC(=O)NCC(=O)N2CCC[C@H]2C(=O)N[C@@H](CO)C(=O)N[C@@H](CO)C(=O)NCC(=O)N[C@@H](C)C(=O)N2CCC[C@H]2C(=O)N2CCC[C@H]2C(=O)N2CCC[C@H]2C(=O)N[C@@H](CO)C(N)=O)NC(=O)[C@H](CC(C)C)NC(=O)[C@H](CC(C)C)NC(=O)[C@H](Cc2ccc(O)cc2)NC(=O)[C@H](CCC(=O)O)NC1=O` [TG31] (H-Y[Aib]QGTFTSDYSI[αMeL]LDKK(Ac)AQ[dA]CFIEYLLCGGPSSGAPPPS-NH2; linker 21-28 via X1), the EC50 in assay [1] is 32.7 pM; in assay [2] it was 11.4 pM; in assay [3], 440 pM.

`CC[C@H](C)[C@H](NC(=O)[C@H](CO)NC(=O)[C@H](Cc1ccc(O)cc1)NC(=O)[C@H](CC(=O)O)NC(=O)[C@H](CO)NC(=O)[C@@H](NC(=O)[C@H](Cc1ccccc1)NC(=O)[C@@H](NC(=O)CNC(=O)[C@H](Cc1c[nH]cn1)NC(=O)C(C)(C)NC(=O)[C@@H](N)Cc1c[nH]cn1)[C@@H](C)O)[C@@H](C)O)C(=O)N[C@@H](Cc1ccc(O)cc1)C(=O)N[C@H]1CSCC(=O)NCCN(C(=O)CCC(=O)NCCOCCOCC(=O)NCCOCCOCC(=O)NCCCC[C@H](NC(=O)CCCCCCCCCCCCCCCCCCC(=O)O)C(=O)O)CCNC(=O)CSC[C@@H](C(=O)N[C@@H](Cc2ccccc2)C(=O)N[C@H](C(=O)N[C@@H](CCC(N)=O)C(=O)N[C@@H](Cc2c[nH]c3ccccc23)C(=O)N[C@@H](CC(C)C)C(=O)N[C@@H](CC(C)C)C(=O)N[C@@H](CCC(=O)O)C(=O)NCC(=O)NCC(=O)N2CCC[C@H]2C(=O)N[C@@H](CO)C(=O)N[C@@H](CO)C(=O)NCC(=O)N[C@@H](C)C(=O)N2CCC[C@H]2C(=O)N2CCC[C@H]2C(=O)N2CCC[C@H]2C(=O)N[C@@H](CO)C(N)=O)C(C)C)NC(=O)C(C)(C)NC(=O)[C@H](C)NC(=O)[C@H](Cc2ccc(O)cc2)NC(=O)[C@H](CCCNC(=N)N)NC(=O)[C@H](CCCCN)NC(=O)[C@H](CCC(=O)O)NC1=O` [TG8]: the EC50 is 243 pM in assay [1], 426 pM in assay [2] and 836 pM in assay [3].

As for `CC(=O)NCCCC[C@H](NC(=O)[C@H](CCC(=O)O)NC(=O)[C@H](CC(C)C)NC(=O)[C@H](Cc1ccc(O)cc1)NC(=O)[C@H](CCCCN)NC(=O)[C@H](CO)NC(=O)[C@H](Cc1ccc(O)cc1)NC(=O)[C@H](CC(=O)O)NC(=O)[C@H](CO)NC(=O)[C@@H](NC(=O)[C@H](Cc1ccccc1)NC(=O)[C@@H](NC(=O)CNC(=O)[C@H](Cc1c[nH]cn1)NC(=O)C(C)(C)NC(=O)[C@@H](N)Cc1c[nH]cn1)[C@@H](C)O)[C@@H](C)O)C(=O)N[C@@H](CCCCN)C(=O)N[C@@H](Cc1ccc(O)cc1)C(=O)N[C@@H](C)C(=O)NC(C)(C)C(=O)N[C@H]1CSCC(=O)NCCN(C(=O)CCC(=O)NCCOCCOCC(=O)NCCOCCOCC(=O)NCCCC[C@H](NC(=O)CCCCCCCCCCCCCCCCCCC(=O)O)C(=O)O)CCNC(=O)CSC[C@@H](C(=O)NCC(=O)NCC(=O)N2CCC[C@H]2C(=O)N[C@@H](CO)C(=O)N[C@@H](CO)C(=O)NCC(=O)N[C@@H](C)C(=O)N2CCC[C@H]2C(=O)N2CCC[C@H]2C(=O)N2CCC[C@H]2C(=O)N[C@@H](CO)C(N)=O)NC(=O)[C@H](CC(C)C)NC(=O)[C@H](CC(C)C)NC(=O)[C@H](Cc2c[nH]c3ccccc23)NC(=O)[C@H](CCC(N)=O)NC(=O)[C@H](C(C)C)NC(=O)[C@H](Cc2ccccc2)NC1=O` [TG14] (H-H[Aib]HGTFTSDYSKYLEK(Ac)KYA[Aib]CFVQWLLCGGPSSGAPPPS-NH2; linker 21-28 via X1), the EC50 stood at 311 pM in assay [1], 752 pM in assay [2] and 277 pM in assay [3].

Consider `CC[C@H](C)[C@@H]1NC(=O)[C@H](Cc2ccccc2)NC(=O)[C@@H](NC(=O)C(C)(C)NC(=O)[C@H](CCC(N)=O)NC(=O)[C@H](C)NC(=O)[C@H](CCCCNC(C)=O)NC(=O)[C@H](CCCCN)NC(=O)[C@H](CCC(=O)O)NC(=O)[C@H](CC(C)C)NC(=O)[C@](C)(CC(C)C)NC(=O)[C@@H](NC(=O)[C@H](CO)NC(=O)[C@H](Cc2ccc(O)cc2)NC(=O)[C@H](CC(=O)O)NC(=O)[C@H](CO)NC(=O)[C@@H](NC(=O)[C@H](Cc2ccccc2)NC(=O)[C@@H](NC(=O)CNC(=O)[C@H](CCC(N)=O)NC(=O)C(C)(C)NC(=O)[C@@H](N)Cc2ccc(O)cc2)[C@@H](C)O)[C@@H](C)O)[C@@H](C)CC)CSCC(=O)NCCN(C(=O)CCC(=O)NCCOCCOCC(=O)NCCOCCOCC(=O)NCCCC[C@H](NC(=O)CCCCCCCCCCCCCCCCCCC(=O)O)C(=O)O)CCNC(=O)CSC[C@@H](C(=O)NCC(=O)NCC(=O)N2CCC[C@H]2C(=O)N[C@@H](CO)C(=O)N[C@@H](CO)C(=O)NCC(=O)N[C@@H](C)C(=O)N2CCC[C@H]2C(=O)N2CCC[C@H]2C(=O)N2CCC[C@H]2C(=O)N[C@@H](CO)C(N)=O)NC(=O)[C@H](CC(C)C)NC(=O)[C@H](CC(C)C)NC(=O)[C@H](Cc2ccc(O)cc2)NC(=O)[C@H](CCC(=O)O)NC1=O` [TG36], for which the figures for the EC50 in assay [1], in assay [2] and in assay [3] were 34.1 pM, 10.8 pM and 813 pM, respectively.

The values are drawn from EP4790066A1, “GLP-1R/GIPR/GCGR TRIPLE AGONIST ANALOGUE AND USE THEREOF” (Shenzhen Bay Laboratory, priority 2023, dated 2025).
